“And” between values parts separate entries of the source, which are not always exact repeats. Identical values can stand only once.
Tests used:
[1] = tested on: brown stink bug, Euschistus heros; experiment: Diet bioassay on second-instar nymphs of brown stink bug, percent control, synergy by Colby's equation; type: in vivo; details: single active, dose rate 0.04 weight %
Description: (§1) The method described in Colby S. R., “Calculating Synergistic and Antagonistic Responses of Herbicide Combinations,” Weeds, 1967, 15, 20-22 was used to determine an existence of synergic effect between the ryanodine receptor modulator compound and the pesticide (I), (II), or any agriculturally acceptable salt thereof in the formulated pesticidal composition. In this method, the percent insect control of the formulated pesticidal composition as observed in the study was compared to the “expected” percent control (E) as calculated by equation (1) (hereinafter “Colby's equation”) below: […]
(§2) where • X is the percentage of control with the first pesticide at a given rate (p), • Y is the percentage of control with the second pesticide at a given rate (q), and • E is the expected control by the first and second pesticide at a rate of p+q.
The percent control of the pesticidal composition against brown stink bug, Euschistus heros, was determined as the “Observed” action, and compared to those obtained by using about 0.04 weight % of compound II, and using about 0.000156 weight % of cyantraniliprole alone. The “Colby's Expected Action” was calculated using Colby's equation as discussed previously.

[2] = tested on: diamondback moth, Plutella xylostella; experiment: Cabbage leaf disc bioassay (track sprayer, 400 L/Ha) on second instar diamondback moths, percent control, synergy by Colby's equation; type: in vivo; details: single active
Description: as §1, §2
Bioassays were performed for different active compounds. Cabbage plants with about two to three new-growth—true leaf stage were treated with different pesticides using a track sprayer application at 400 L/Ha spray volume. Three second instar diamondback moths, Plutella xylostella, were infested onto each leaf disc.
Bioassays were performed for different active compounds. Cabbage plants with about two to three new-growth—true leaf stage were treated with different pesticides using a track sprayer at a rate of 400 L/Ha. Three second instar diamondback moths, Plutella xylostella, were infested onto each leaf disc.

CCN(C(=O)CC[S+]([O-])CCC(F)(F)F)c1cn(-c2cccnc2)nc1Cl (stereo not drawn) [Compound II, N-(3-chloro-1-(pyridin-3-yl)-1H-pyrazol-4-yl)-N-ethyl-3-((3,3,3-trifluoropropyl)sulfinyl)propanamide]
% Control Six Days After Treatment [1]: 0%

CCN(C(=O)CCSCCC(F)(F)F)c1cn(-c2cccnc2)nc1Cl [Compound I, N-(3-chloro-1-(pyridin-3-yl)-1H-pyrazol-4-yl)-N-ethyl-3-((3,3,3-trifluoropropyl)thio)propanamide]
% Control Three Days After Treatment ([2]; dose rate 0.0025 weight %): 4.35% and 0%

CNC(=O)c1cc(Cl)cc(C)c1NC(=O)c1cc(Br)nn1-c1ncccc1Cl [Chlorantraniliprole, 3-bromo-N-[4-chloro-2-methyl-6-[(methylamino)carbonyl]phenyl]-1-(3-chloro-2-pyridinyl)-1H-pyrazole-5-carboxamide]
% Control Three Days After Treatment ([2]; dose rate 0.0000347 weight %): 25%
% Control Three Days After Treatment ([2]; dose rate 0.000104 weight %): 62.5%
% Control Three Days After Treatment ([2]; dose rate 0.0003125 weight %): 66.67%

Cc1cc(C(F)(C(F)(F)F)C(F)(F)F)ccc1NC(=O)c1cccc(I)c1C(=O)NC(C)(C)CS(C)(=O)=O [Flubendiamide]
% Control Three Days After Treatment ([2]; dose rate 0.0003125 weight %): 8.70%

Source: US20160150784A1, “SYNERGISTIC PESTICIDAL COMPOSITIONS AND RELATED METHODS” (Dow AgroSciences LLC, priority 2013, published 2016)
